# Assay results: US3959248A, “Analogs of thyrotropin-releasing hormone” (Merck & Co., Inc., priority 1975, dated 1976)
# Tests used:
# [1] = test system: picolinic acid treated mice; assay: anti-depressant (CNS stimulant) activity: restoration of anti-convulsant action of methazolamide in picolinic acid treated mice; settings: multiple of the control AD activity of TRH, which has the value 1, in vivo
# Description: (§1) The tripeptides of the present invention are found to have anti-depressant activity and thyrotropin releasing hormone activity. Their activity as anti-depressants is as central nervous system (CNS) stimulants and was determined by testing representative tripeptides of the present invention using in vivo assay based on restoration of anti-convulsant action of methazolamide in picolinic acid treated mice. The thyrotropin releasing hormone activity of the present tripeptides was determined using the in vivo assay substantially as described in "Vitamins and Hormone" R.S. Harris et al, 29, 3-4 (1971).
# (§2) The following table contains activity data for a number of representative peptides of the present invention. The protocols used to obtain the data were those described above. The results are expressed numerically as multiples of the TS (thyrotropin stimulation) and AD (anti-depressant) activity compared to the control TS and AD activities of TRH which have the value 1. The designation S.N. is used to indicate substantially no detectable activity at the dosage level tested.
# thyrotropin release = assay: thyrotropin releasing hormone activity (TS, thyrotropin stimulation), in vivo assay; settings: multiple of the control TS activity of TRH, which has the value 1
# Description: as §1, §2
smiles,measurement,setting,value
"NC(=O)[C@@H]1CCCN1C(=O)[C@H](Cc1c[nH]cn1)NC(=O)[C@@H]1CCC(=O)N1 [TRH, L-pyroglutamyl-L-histidyl-L-proline amide]",AD (anti-depressant) activity,[1],1
same,TS (thyrotropin stimulation) activity,thyrotropin release,1
